Source: patent publication US8858995B2, “Methods and compositions for controlled delivery of phytochemical agents” (priority 2008, dated 2014)

Key:
[1] = Effect of phytochemical agent load on in vitro release; assay type: physicochemical; details: curcumin 2, 5, 20% w/w, GTPs 1, 2.5, 5, 10% w/w
Procedure: The medium was replaced daily and the amount of curcumin released from each composition per day was measured spectrophotometrically against a standard curve and expressed as μg/day. A similar experiment was also performed to examine the effect of incorporating various amounts of GTPs into a biocompatible polymeric matrix on the in vitro release of the agents.

[2] = Lung and liver curcumin levels after subcutaneous implantation of curcumin matrices; assay type: in vivo, Sprague-Dawley rats
[3] = In vitro release of curcumin from device for cervical insertion; assay type: physicochemical; details: after approximately 5 days in release medium; 18 days release period
Procedure: The medium was replaced daily and the amount of curcumin released from the compositions per day was measured spectrophotometrically against a standard curve and expressed as micrograms per day.

[4] = In vitro release of curcumin from PCL-121K:PEG-8K (65:35) implants; assay type: physicochemical
Procedure: Both solutions were then mixed together to prepare a homogenous solution of drug and polymers. The solvents were evaporated on a water bath maintained at 65° C. followed by overnight drying under vacuum at 65° C. to remove residual solvents to prepare an amorphous molecular dispersion of drug in polymer. The dried molten polymer was then extruded through silastic tubing mold (internal diameter 3.4 mm) attached to a syringe. After a few minutes, the cylindrical implants were removed from the tubing and excised into desired lengths (2.0 cm, 200 mg containing 40 mg drug) and stored at −20° C. under argon until used.
PBS was supplemented with BCS (10% v/v) to mimic extracellular fluid composition and to simulate the in vivo situation. Amber-colored vials (n=3) containing a 2-cm implant each were incubated at 37±0.5° C. in a reciprocating (150 rpm) shaker water bath (Julabo S W23, Seelbach, Germany), and the release medium was changed after every 24 h.

GSTM = GSTM levels in hepatic microsomes (Western blotting); assay type: in vivo, ACI rats; details: implant and dietary routes
Procedure: (§1) To evaluate the xenobiotic-metabolizing enzymes, liver samples from the animals (approximately 100 mg) were homogenized in 0.25 M sucrose buffer (pH 7.4) at 3000 rpm with Polytron. The homogenate was centrifuged at 3000 g for 20 min at 4° C. to separate the nuclear content, and the supernatant was then collected and again centrifuged at 11,000 g for 20 min at 4° C. to separate the mitochondria. The post-mitochondrial supernatant was then transferred to ultracentrifuge tubes and finally centrifuged at 100,000 g for 1 h at 4° C. to separate the microsomes. The pellet was suspended in 1 ml sucrose buffer, aliquoted and stored at −80° C. until use.
Microsomal proteins were subsequently quantified using a bicinchoninic acid (BCA) method and a BCA™ Protein Assay kit (Thermo Scientific, Rockford, Ill.) and were resolved by sodium dodecyl sulfatepolyacrylamide gel electrophoresis (SDS-PAGE) on a 10% gel. Protein bands were then transferred to polyvinylidene diflouride (PVDF) membrane, which was incubated with 5% non-fat dried milk in Tris-buffered-saline for 1 h at room temperature (25° C.) to block the non-specific binding sites. […] The bands were detected by enhanced chemiluminescence using Pierce® ECL Western-Blotting Substrate (Thermo Scientific, Rockford, Ill.) and quantified using VersaDoc Imaging System (BioRad Laboratories, Hercules, Calif.).

CYP3A4 = CYP3A4 activity in hepatic microsomes; assay type: in vivo, ACI rats
Procedure: as §1

[5] = Safety and biocompatibility of curcumin implants; assay type: in vivo; details: curcumin doses administered by the implants; at least 3 months
Excerpt: As such, the further study was designed in continuation to above-described experiments (i) to analyze the in vivo release from these implants, (ii) to compare the tissue distribution of curcumin delivered via these implants with curcumin delivered via diet, and finally (iii) to compare the efficacy of curcumin delivered via both routes.

[6] = In vitro release from coated (and extruded) polymeric implants; assay type: physicochemical; details: 37° C., no serum
Procedure: To formulate the “coated” polymeric implants, blank P-80 implants (1.4 mm dia) were then prepared by dissolving P-80:F68 (9:1) in dichloromethane, followed by evaporation of the solvent in a Petri dish under hood and extrusion of the molten polymer through a silastic tubing mold, similar to the methodologies described herein above. […] For coating, one end of the blank implant (2.5-3.5 cm) was inserted into a silastic tube plug (6 mm long, 1.4 mm dia) while the other end of the plug was attached with a pipet tip. Coatings were then added by dipping the blank implant into the solution with intermittent drying with cool air using a commercial hair dryer and placing them under hood. […] The assembly was placed under hood overnight to remove the residual DCM, implants were excised in 1 or 2 cm lengths and stored in amber vials under argon at -20° C. until used. The rate of in vitro release for the implants was subsequently measured. […] The vials were placed in a water bath (Julabo S W 23, Seelback, Germany) at 37° C. with constant agitation at 110 rpm. The medium was changed every 24 h.

[7] = Tissue curcuminoid levels after coated implants (UPLC); assay type: in vivo, A/J mice; details: female, A/J, mouse, in vivo
Procedure: Briefly, liver and brain tissues (500 and 400 mg, respectively) from each animal were homogenized in 3 ml PBS (pH 7.4) containing 200 μl of 0.5 M sodium acetate, and extracted with ethyl acetate. After evaporation of the pooled extracts, the residue was reconstituted in 100 μl acetonitrile and analyzed by UPLC using Shimadzu UPLC system (Kyoto, Japan), with a Shim-Pack XR-ODS II reverse phase column (Shimadzu; 150×3.0 mm i.d., 2.2 μm).

Structure (SMILES): COc1cc(/C=C/C(=O)CC(=O)/C=C/c2ccc(O)c(OC)c2)ccc1O [curcumin]
- amount released per day and total amount released versus amount incorporated [1]: varied proportionally
- concentration at 4 days ([2]; Sprague-Dawley, rat, liver, subcutaneous, 20 % w/w curcumin in two 2-cm polymeric matrices, implants 20% w/w, 4 days): ~40 ng/g
- concentration at 7 days ([2]; Sprague-Dawley, rat, liver, subcutaneous, 20 % w/w curcumin in two 2-cm polymeric matrices, implants 20% w/w, 7 days): ~5 ng/g
- concentration at 4 days ([2]; Sprague-Dawley, rat, lung, sc, 20 % w/w curcumin in two 2-cm polymeric matrices): ~15 ng/g
- curcumin level in lung tissue ([2]; implants 20% w/w, after 7 days, maintained at 13 and 21 days): approximately 5 ng/g
- curcumin level in liver tissue ([2]; implants 20% w/w, during the next 30 days): about 2.5 ng/g
- amount of curcumin released per day from device [3]: decreased and approached lower steady-state levels
- curcumin release after 1 week [4]: approximately 200 μg/day
- curcumin release after 31 days [4]: approximately 120 μg/day
- curcumin release on day 2 [4]: approximately 390 μg
- cumulative release after 1 month ([4]; 40 mg per implant): approximately 15 % of total agent load
- curcumin release on day 1 ([4]; 2-cm implant, 40 mg): approximately 570 μg
- GSTM levels (GSTM): not found to get modulated
- CYP3A4 activity (CYP3A4; curcumin diet, 12 days): reduced to basal levels
- CYP3A4 activity compared to untreated animals (CYP3A4; curcumin diet, after 4 days): significant higher
- CYP3A4 activity (CYP3A4; curcumin diet, day 1): slightly higher activity
- increase in CYP3A4 activity compared with sham implants (CYP3A4; curcumin implants): became significant only after 25 days
- CYP3A4 activity (CYP3A4; curcumin implants, after 3 months): remained consistently upregualated
- liver and kidney function [5]: did not induce any biochemical changes in liver and kidney function
- release in PBS alone [6]: essentially no release
- concentration at 21 days [7]: 15 ng/g
